Patent publication US20040097515A1, “Antimicrobial drug reduced in effect on heart” (priority 2001, published 2004)
Entries after “also recorded” stand apart in the source; their conditions may differ.

Experiments:
[1] = system: guinea pig right ventricular myocardium sample; assay: APD prolonging effect, action potential of guinea pig right ventricular myocardium sample; assay type: cell-based; conditions: for relative strength of APD prolonging effect, Tukey test / APD prolonging effect (rate of change in APD90 with respect to the initial value), Average: after 60 minute-exposure; for relative strength of APD prolonging effect, Tukey test: statistically significant difference; for relative strength of APD prolonging effect: at each of the measured points; for myocardial action potential duration, effect of exposure: exposed for 10 minutes or more, paired t-test; for APD prolonging effect (rate of change in APD90 with respect to the initial value), Average: Dose 100 (μM)
Experimental: Slc: Hartley male guinea pigs (body weight: 322 to 667 g each) were employed as subjects.
Each of compound (I), compound (II), and gatifloxacin was dissolved in an aqueous 1% lactic acid solution, to thereby prepare a 10 mM solution. The resultant solution was employed as a drug solution.
Measurement of action potential was performed as follows. Specifically, the heart was quickly removed from each of the guinea pigs, and in a nutrition solution (Krebs-Henseleit) aerated with 95% O2+5% CO2 at room temperature, the right ventricular free wall was dissected to thereby prepare a myocardium sample. By use of an injection needle and platinum bipolar electrodes for electric stimulation, the sample was horizontally fixed onto a silicon block within a 20 ml organ bath (maintained at 36.5±0.5° C.) perfused with the nutrition solution aerated with 95% O2+5% CO2. During the test, the sample was electrically stimulated at a frequency of 1 Hz by means of rectangular pulses (voltage: about 1.3 times the threshold at which contraction of the sample is initiated, duration: 1 msec) provided from an electrostimulator via the platinum bipolar electrodes. The action potential of the cells was measured via glass microelectrodes (electrode resistance: 5 to 30 MΩ) which were filled with a 3 M KCl solution and connected to an amplifier for microelectrodes, and the action potential was recorded and analyzed by use of a computer. After electrical stimulation of the sample was continued for one hour or more, the action potential was measured before administration of the drug solution, and 10, 20, 30, 40, 50, and 60 minutes after administration of the drug solution. At each point in time, the action potential was measured and recorded in triplicate, and the average of the measured potentials was taken as the value for that point in time.
The drug solution (200 μL) was added to the 20 mL organ bath by use of a micropipette (final concentration of the drug solution in the bath: 100 μM). On the basis of the thus-measured action potential waveform, resting membrane potential (RMP), overshoot (OS), action potential amplitude (APA), action potential durations at 20%, 50%, and 90% repolarization (APD20, APD50, and APD90), and maximum rising velocity (Vmax) were obtained.
In each of the groups, the paired t-test was performed on the initial value of APD90 and on the action potential measured at each of the aforementioned points in time. Also, time-course variance analysis was performed, and the action potential after the 60 minute-exposure of the sample to the drug solution was subjected to the Tukey test, to thereby perform comparison between the groups. The level of significance was set at 5%, two-sided.

P. aeruginosa, 32121 = assay: Antimicrobial activity, standard method of Japanese Society of Chemotherapy; assay type: cell-based
Experimental: (§1) The antimicrobial activity of the thus-obtained compound was measured by means of the standard method of Japanese Society of Chemotherapy.

E. Coli, NIHJ = assay: as above; assay type: cell-based
Experimental: as §1

S. aureus, FDA 209-P = assay: as above; assay type: cell-based
Experimental: as §1

P. aeruginosa, 32104 = assay: as above; assay type: cell-based
Experimental: as §1

E. faecalis, 19433 = assay: as above; assay type: cell-based
Experimental: as §1

S. epidermidis, 56500 = assay: as above; assay type: cell-based
Experimental: as §1

S. marcescens, 101000 = assay: as above; assay type: cell-based
Experimental: as §1

P. vulgaris 08601 = assay: as above; assay type: cell-based
Experimental: as §1

[2] = Japanese Journal of Chemotherapy, Volume 47, 1999; cited from earlier work
[3] = Japanese Journal of Chemotherapy, Volume 47, 1999; cited from earlier work; remark: listed apart in the source
[4] = 100 μM, Time 10 (minutes after administration)
[5] = 100 μM, Time 20 (minutes after administration)
[6] = 100 μM, Time 30 (minutes after administration)
[7] = 100 μM, Time 40 (minutes after administration)
[8] = 100 μM, Time 50 (minutes after administration)
[9] = 100 μM, Time 60 (minutes after administration)
[10] = Time 0, initial value before administration of the drug solution

SMILES	myocardial action potential duration (APD90), Average [1, 4]	myocardial action potential duration (APD90), Average [1, 5]	myocardial action potential duration (APD90), Average [1, 6]	myocardial action potential duration (APD90), Average [1, 7]	myocardial action potential duration (APD90), Average [1, 8]	myocardial action potential duration (APD90), Average [1, 9]	relative strength of APD prolonging effect, Tukey test ([1]; 100 μM)	relative strength of APD prolonging effect ([1]; 100 μM)	myocardial action potential duration, effect of exposure ([1]; 100 μM)	APD prolonging effect (rate of change in APD90 with respect to the initial value), Average [1]	myocardial action potential duration (APD90), Average [1, 10]	pharmacokinetic action in the body, difference between the antipodes [2]	antimicrobial activity, difference between the antipodes [3]	further results
COc1c(N2CCN[C@@H](C)C2)c(F)cc2c(=O)c(C(=O)O)cn(C3CC3)c12 [Compound (I), 1-Cyclopropyl-6-fluoro-1,4-dihydro-8-methoxy-7-{3-(S)-methylpiperazin-1-yl}-4-oxoquinoline-3-carboxylic acid]	175.7500	180.2217	184.2600	190.6275	192.0675	193.5025	compound (II)>gatifloxacin>compound (I)	compound (II)>gatifloxacin>compound (I)	significantly prolonged	11.2206	170.3200	no great difference	no great difference	strength of APD prolonging effect compared with gatifloxacin and the antipode ([1]; 100 μM): significantly lower APD prolonging effect; also recorded: lower than that of the prolonging effect of gatifloxacin or compound (II); antimicrobial activity (P. aeruginosa, 32121): 0.10; antimicrobial activity (E. Coli, NIHJ): ≦0.003; antimicrobial activity (S. aureus, FDA 209-P): 0.05; antimicrobial activity (P. aeruginosa, 32104): 0.20; antimicrobial activity (E. faecalis, 19433): 0.39; antimicrobial activity (S. epidermidis, 56500): 0.20; antimicrobial activity (S. marcescens, 101000): 0.10; antimicrobial activity (P. vulgaris 08601): 0.006
COc1c(N2CCN[C@H](C)C2)c(F)cc2c(=O)c(C(=O)O)cn(C3CC3)c12 [Compound (II), 1-Cyclopropyl-6-fluoro-1,4-dihydro-8-methoxy-7-{3-(R)-methylpiperazin-1-yl}-4-oxoquinoline-3-carboxylic acid]	185.9917	191.9500	194.2750	205.5900	203.1350	206.9400	compound (II)>gatifloxacin>compound (I)	compound (II)>gatifloxacin>compound (I)	significantly prolonged	17.1760	176.1567	no great difference	no great difference	
COc1c(N2CCNC(C)C2)c(F)cc2c(=O)c(C(=O)O)cn(C3CC3)c12 (stereo not shown) [Gatifloxacin]	180.6120	184.9200	192.2467	190.8950	201.5533	196.4925	compound (II)>gatifloxacin>compound (I)	compound (II)>gatifloxacin>compound (I)	significantly prolonged	13.7789	174.8600			
